Where only a bound is given, the exact number is not on record here.

One test addresses RON (Homo sapiens, UniProt Q04912). The test is described as follows: Inhibitory activity against RON, TR-FRET kinase assay. The test is classed as biochemical. To be noted: RON enzyme. Here is the method: In order to measure the inhibitory activity of each of the compounds of Examples against RON, the IC50 of each of the compounds was measured using a Time-Resolved Fluorescence Energy Transfer Chemistry (TR-FRET).
Specifically, the compound was prepared to a concentration of 1 mM with 100% DMSO and was diluted 10 times in a stepwise manner through 3-fold dilution. 2 ul of the compound diluted in a stepwise manner was added to a 96-well-plate containing 48 ul of a 1× kinase reaction buffer (50 mM HEPES (pH 7.4), 0.01% Tween-20, 5 mM DTT, 0.5 mM Na3VO4, 2 mM EGTA, 10 mM MgCl2).
The RON protein was diluted to a concentration of 49.3 nM with an RON storage buffer (50 mM Tris-HCl (pH 7.5), 150 mM NaCl, 0.5 mM EDTA, 0.02% Triton X-100), and then diluted again to a concentration of 0.4 nM with a 1× kinase reaction buffer. As a substrate cocktail, a RON-specific substrate mixture (40 uM ULight-labeled Poly GT, 100 nM ATP) at a concentration 2 times the final reaction concentration.
Thereafter, a 384-well-plate was prepared, and 2.5 ul of each of the diluted compounds of Examples was added to a corresponding well of experimental group wells, and 2.5 ul of a 4% DMSO solution was dispensed into high control wells and low control wells.
(§1) Thereafter, 2.5 μL of 0.4 nM RON was dispensed into the high control wells and the experimental group wells, and 2.5 μL of a 1× kinase reaction buffer was added to the low control wells, and the RON and the reaction buffer were centrifuged at room temperature for 40 seconds at 1000 RPM, and then incubated at room temperature for 20 to 30 minutes. Then, 5 μL of a substrate cocktail (2×) was dispensed into all wells, centrifuged at room temperature for 40 seconds at 1000 RPM, and then incubated at room temperature for 60 minutes. Thereafter, 5 μL of 30 mM EDTA was added to all wells to terminate the reaction, and then incubated again at room temperature for 5 minutes. Thereafter, 5 μL of a 4× phosphotyrosine antibody (Perkin Elmer) containing europium was added to all wells, and then incubated at room temperature for 60 minutes. After the incubation, the 384-well-plate was read with a Vison plate reader. At this time, the excitation wavelength was 340 nm, and the emission wavelength was 620 nm and 665 nm. The IC50 value of the compound of each Example was derived using the GraphPd Prism7 program.
(TR-FRET usually uses a lanthanide donor and a delayed reading to cut background.)

For a further test, the target named is cMET (Homo sapiens, UniProt P08581). Put plainly: Inhibitory activity against MET (cMET), TR-FRET kinase assay. The class given is biochemical. To be noted: cMET enzyme. The method, then: In addition, in order to measure the enzyme activity inhibition for cMET, the evaluation was performed in the same manner as the enzyme activity inhibition measurement experiment for the RON.
Specifically, the compound was prepared to a concentration of 1 mM with 100% DMSO and was diluted 10 times in a stepwise manner through 3-fold dilution. 2 ul of the compound diluted in a stepwise manner was added to a 96-well-plate containing 48 ul of a 1× kinase reaction buffer (50 mM HEPES (pH 7.4), 0.05% BSA, 0.005% Tween-20, 1 mM DTT, 0.5 mM MnCl2, 20 mM MgCl2).
The cMET protein was diluted to a concentration of 263 nM with a cMET storage buffer (50 mM Tris-HCl (pH 7.5), 150 mM NaCl, 0.05% Brij35, 1 mM DTT, 10% Glycerol), and then diluted again to a concentration of 2 nM with a 1× kinase reaction buffer. As a substrate cocktail, a MET-specific substrate mixture (5 uM TK peptide, […]) at a concentration 2 times the final reaction concentration.
Thereafter, a 384-well-plate was prepared, and 2.5 μl of each of the diluted compounds of Examples was added to a corresponding well of experimental group wells, and 2.5 μl of a 4% DMSO solution was dispensed into high control wells and low control wells.
as §1, with “of 2” for “of 0.4”, “nM cMET” for “nM RON”, “of 90” for “of 30”

Sequence of RON (Q04912 25-1400, species assumed): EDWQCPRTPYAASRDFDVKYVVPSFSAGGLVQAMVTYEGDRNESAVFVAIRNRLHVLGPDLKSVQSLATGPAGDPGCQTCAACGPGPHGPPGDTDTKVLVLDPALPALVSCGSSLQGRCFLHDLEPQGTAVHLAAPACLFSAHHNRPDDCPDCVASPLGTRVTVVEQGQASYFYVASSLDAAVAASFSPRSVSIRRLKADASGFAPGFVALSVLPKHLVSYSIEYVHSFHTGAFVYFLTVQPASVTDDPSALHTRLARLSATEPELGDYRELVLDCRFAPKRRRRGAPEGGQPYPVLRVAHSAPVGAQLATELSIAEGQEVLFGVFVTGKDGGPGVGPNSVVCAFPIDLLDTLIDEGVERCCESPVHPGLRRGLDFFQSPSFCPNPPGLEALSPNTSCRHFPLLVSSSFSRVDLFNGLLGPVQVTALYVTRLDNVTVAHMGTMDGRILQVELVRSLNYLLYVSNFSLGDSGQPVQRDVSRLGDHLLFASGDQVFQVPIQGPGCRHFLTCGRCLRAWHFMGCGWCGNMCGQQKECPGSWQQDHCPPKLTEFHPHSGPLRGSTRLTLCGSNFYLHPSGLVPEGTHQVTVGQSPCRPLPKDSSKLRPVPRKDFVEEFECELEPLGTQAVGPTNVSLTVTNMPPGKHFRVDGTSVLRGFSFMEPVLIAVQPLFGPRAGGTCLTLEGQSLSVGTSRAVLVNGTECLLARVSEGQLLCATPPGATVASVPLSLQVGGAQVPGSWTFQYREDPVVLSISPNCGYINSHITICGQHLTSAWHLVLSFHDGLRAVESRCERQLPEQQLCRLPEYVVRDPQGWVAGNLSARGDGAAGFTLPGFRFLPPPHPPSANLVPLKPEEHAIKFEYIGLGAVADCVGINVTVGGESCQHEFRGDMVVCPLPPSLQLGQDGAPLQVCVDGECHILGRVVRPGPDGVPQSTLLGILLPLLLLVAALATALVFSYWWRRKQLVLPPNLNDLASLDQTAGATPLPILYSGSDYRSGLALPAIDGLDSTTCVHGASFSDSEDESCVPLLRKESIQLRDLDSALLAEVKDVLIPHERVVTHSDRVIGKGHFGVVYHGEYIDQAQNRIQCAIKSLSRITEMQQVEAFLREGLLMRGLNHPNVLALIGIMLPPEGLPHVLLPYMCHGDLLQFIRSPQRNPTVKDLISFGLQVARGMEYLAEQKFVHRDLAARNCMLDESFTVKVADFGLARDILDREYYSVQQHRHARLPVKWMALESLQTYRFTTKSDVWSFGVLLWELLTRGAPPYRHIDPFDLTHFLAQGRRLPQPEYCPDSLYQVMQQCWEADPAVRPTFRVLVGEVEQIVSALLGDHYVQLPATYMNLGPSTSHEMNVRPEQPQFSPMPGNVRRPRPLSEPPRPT
Sequence of cMET (P08581 25-1390): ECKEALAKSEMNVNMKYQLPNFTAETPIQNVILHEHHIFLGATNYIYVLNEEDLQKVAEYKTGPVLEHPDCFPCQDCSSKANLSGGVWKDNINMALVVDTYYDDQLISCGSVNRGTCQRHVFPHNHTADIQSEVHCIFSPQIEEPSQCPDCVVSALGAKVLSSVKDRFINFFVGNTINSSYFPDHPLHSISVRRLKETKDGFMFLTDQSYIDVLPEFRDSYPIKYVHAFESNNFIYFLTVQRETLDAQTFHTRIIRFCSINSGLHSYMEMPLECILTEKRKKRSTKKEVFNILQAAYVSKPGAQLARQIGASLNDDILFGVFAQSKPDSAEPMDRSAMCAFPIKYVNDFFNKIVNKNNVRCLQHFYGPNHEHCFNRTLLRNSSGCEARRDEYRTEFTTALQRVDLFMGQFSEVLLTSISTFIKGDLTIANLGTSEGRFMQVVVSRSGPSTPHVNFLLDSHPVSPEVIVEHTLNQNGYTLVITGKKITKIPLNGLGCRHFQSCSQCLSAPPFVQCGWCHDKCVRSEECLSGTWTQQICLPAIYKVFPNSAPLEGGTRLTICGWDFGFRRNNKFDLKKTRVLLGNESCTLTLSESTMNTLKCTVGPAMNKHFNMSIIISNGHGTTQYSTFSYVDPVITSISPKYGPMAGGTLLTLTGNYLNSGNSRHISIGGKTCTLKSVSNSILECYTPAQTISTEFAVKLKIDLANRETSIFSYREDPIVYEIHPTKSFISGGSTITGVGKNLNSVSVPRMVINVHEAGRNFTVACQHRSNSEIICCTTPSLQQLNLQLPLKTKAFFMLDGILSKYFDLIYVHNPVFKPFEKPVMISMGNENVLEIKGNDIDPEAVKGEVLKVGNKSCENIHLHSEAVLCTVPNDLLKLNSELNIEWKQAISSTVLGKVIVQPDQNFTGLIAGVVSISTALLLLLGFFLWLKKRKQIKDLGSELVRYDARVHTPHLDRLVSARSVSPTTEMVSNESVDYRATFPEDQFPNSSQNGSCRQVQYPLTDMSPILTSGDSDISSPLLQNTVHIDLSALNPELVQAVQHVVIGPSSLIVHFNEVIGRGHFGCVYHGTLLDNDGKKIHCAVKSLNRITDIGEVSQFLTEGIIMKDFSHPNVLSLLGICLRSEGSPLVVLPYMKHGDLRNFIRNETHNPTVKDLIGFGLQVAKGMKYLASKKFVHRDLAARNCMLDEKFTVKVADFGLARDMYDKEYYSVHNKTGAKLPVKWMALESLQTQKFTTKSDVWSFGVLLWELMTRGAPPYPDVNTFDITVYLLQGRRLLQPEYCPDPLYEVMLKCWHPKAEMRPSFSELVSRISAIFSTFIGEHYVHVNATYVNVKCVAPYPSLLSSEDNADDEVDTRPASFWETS

As a reminder, the IC50 is the concentration that gives 50% inhibition. Take `O=C(Nc1ccc(Oc2ccnc3[nH]c(=O)[nH]c23)c(F)c1)c1ncn(-c2ccccc2)c1C(F)(F)F` [Example 1, N-(3-fluoro-4-((2-oxo-2,3-dihydro-1H-imidazo[4,5-b]pyridine-7-yl)oxy)phenyl)-1-phenyl-5-(trifluoromethyl)-1H-imidazole-4-carboxamide]: the IC50 against RON is < 50 nM; against cMET, > 5000 nM.

Regarding `O=C(Nc1ccc(Oc2ccnc3[nH]c(=O)[nH]c23)c(F)c1)c1cnn(-c2ccccc2)c1C(F)(F)F` [Example 2, N-(3-fluoro-4-((2-oxo-2,3-dihydro-1H-imidazo[4,5-b]pyridine-7-yl)oxy)phenyl)-1-phenyl-5-(trifluoromethyl)-1H-pyrazole-4-carboxamide], the IC50 at RON is < 50 nM; against cMET it was > 5000 nM.

On to `CCn1c(=O)[nH]c2nccc(Oc3ccc(NC(=O)c4ncn(-c5ccccc5)c4C(F)(F)F)cc3F)c21` [Example 3, N-(4-((1-ethyl-2-oxo-2,3-dihydro-1H-imidazo[4,5-b]pyridine-7-yl)oxy)-3-fluorophenyl)-1-phenyl-5-(trifluoromethyl)-1H-imidazole-4-carboxamide], for which the IC50 at RON is < 50 nM; at cMET, > 5000 nM.

With `CCn1c(=O)[nH]c2nccc(Oc3ccc(NC(=O)c4cnn(-c5ccccc5)c4C(F)(F)F)cc3F)c21` [Example 4, N-(4-((1-ethyl-2-oxo-2,3-dihydro-1H-imidazo[4,5-b]pyridine-7-yl)oxy)-3-fluorophenyl)-1-phenyl-5-(trifluoromethyl)-1H-pyrazole-4-carboxamide], the IC50 was < 50 nM against RON and > 5000 nM against cMET.

For `Cn1c(=O)[nH]c2nccc(Oc3ccc(NC(=O)c4ncn(-c5ccccc5)c4C(F)(F)F)cc3F)c21` [Example 5, N-(3-fluoro-4-((1-methyl-2-oxo-2,3-dihydro-1H-imidazo[4,5-b]pyridine-7-yl)oxy)phenyl)-1-phenyl-5-(trifluoromethyl)-1H-imidazole-4-carboxamide], the values for the IC50 against RON and against cMET were < 50 nM and > 5000 nM, respectively.

On to `Cn1c(=O)[nH]c2nccc(Oc3ccc(NC(=O)c4cnn(-c5ccccc5)c4C(F)(F)F)cc3F)c21` [Example 6, N-(3-fluoro-4-((1-methyl-2-oxo-2,3-dihydro-1H-imidazo[4,5-b]pyridine-7-yl)oxy)phenyl)-1-phenyl-5-(trifluoromethyl)-1H-pyrazole-4-carboxamide], for which the values for the IC50 against RON and at cMET were < 50 nM and > 5000 nM, respectively.

For `CC(C)n1c(=O)[nH]c2nccc(Oc3ccc(NC(=O)c4cnn(-c5ccccc5)c4C(F)(F)F)cc3F)c21` [Example 7, N-(3-fluoro-4-((1-isopropyl-2-oxo-2,3-dihydro-1H-imidazo[4,5-b]pyridine-7-yl)oxy)phenyl)-1-phenyl-5-(trifluoromethyl)-1H-pyrazole-4-carboxamide], the IC50 on RON was < 50 nM; against cMET it was 500 to 5000 nM.

`CC(C)n1c(=O)[nH]c2nccc(Oc3ccc(NC(=O)c4ncn(-c5ccccc5)c4C(F)(F)F)cc3F)c21` [Example 8, N-(3-fluoro-4-((1-isopropyl-2-oxo-2,3-dihydro-1H-imidazo[4,5-b]pyridine-7-yl)oxy)phenyl)-1-phenyl-5-(trifluoromethyl)-1H-imidazole-4-carboxamide]: the figures for the IC50 at RON and against cMET were < 50 nM and > 5000 nM, respectively.

As to `CCc1c(C(=O)Nc2ccc(Oc3ccnc4[nH]c(=O)[nH]c34)c(F)c2)cnn1-c1ccccc1` [Example 9, 5-ethyl-N-(3-fluoro-4-((2-oxo-2,3-dihydro-1H-imidazo[4,5-b]pyridine-7-yl)oxy)phenyl)-1-phenyl-1H-pyrazole-4-carboxamide], the 50% inhibitory concentration (IC50) against RON is 50 to 500 nM; against cMET it was > 5000 nM.

Consider `CCc1c(C(=O)Nc2ccc(Oc3ccnc4[nH]c(=O)n(C(C)C)c34)c(F)c2)cnn1-c1ccccc1` [Example 10, 5-ethyl-N-(3-fluoro-4-((1-isopropyl-2-oxo-2,3-dihydro-1H-imidazo[4,5-b]pyridine-7-yl)oxy)phenyl)-1-phenyl-1H-pyrazole-4-carboxamide], for which the 50% inhibitory concentration (IC50) against RON was < 50 nM; against cMET, 500 to 5000 nM.

Source of the values: US20240300944A1, “NOVEL UREA DERIVATIVE COMPOUND AS RON INHIBITOR” (LG CHEM, LTD., priority 2021, published 2024).
